Test results reported in patent EP4752152A1, “STEROID COMPOUND, AND PREPARATION METHOD THEREFOR AND USE THEREOF” (Cholesgen (Shanghai) Co.Ltd., priority 2023, dated 2025).

System: SREBP pathway
Assay: SREBP luciferase reporter gene system (SRE-luciferase assay)
Assay type: cell-based, human
Settings: Huh-7/SRE-luc cells, sterol-deficient medium, 0.01-10 µM
Method in brief: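 Readout was SRE-driven luciferase normalised to GFP fluorescence in lysates of stably transfected Huh-7/SRE-luc hepatoma cells. Compounds (0.01, 0.03, 0.1, 0.3, 1.0, 3.0, 10 µM; DMSO control) were applied for 16 h in sterol-depleted medium with 2 µM lovastatin and 10 µM mevalonate; IC50 from variable-slope fit.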

SMILES | IC50 (Homo sapiens, Huh-7, 16 h) [µM] | IC50 (16 hours) [µM]
C[C@H](CCC(=O)N(C)c1ccccc1F)[C@H]1CC[C@H]2C3=C(F)C[C@H]4[C@@H](O)[C@@H](O)CC[C@]4(C)[C@H]3CC[C@]12C [Compound 96, (4R)-4-[(1R,3aR,5aR,6R,7S,9aR,9bR,11aR)-4-fluoro-6,7-dihydroxy-9a,11a-dimethyl-2,3,3a,5,5a,6,7,8,9,9a,9b,10,11,11a-tetradecahydro-1H-cyclopenta[1,2-a]phenanthren-1-yl]-N-(2-fluorophenyl)-N-methylpentanamide] | 0.34 | –
COc1ccc(F)cc1[C@H](O)CCC[C@@H](C)[C@H]1CC[C@H]2[C@H]3[C@H](CC[C@]12C)[C@@]1(C)CC[C@H](O)[C@H](O)[C@@H]1CC3(F)F [Compound 169, (1R,3aS,3bS,5aR,6R,7S,9aR,9bS,11aR)-4,4-difluoro-1-[(2R,6R)-6-(5-fluoro-2-methoxyphenyl)-6-hydroxyhexan-2-yl]-9a,11a-dimethylhexadecahydro-1H-cyclopenta[1,2-a]phenanthrene-6,7-diol] | 0.075 | –
COc1ccc(C(O)CCC[C@@H](C)[C@H]2CC[C@H]3C4=C(F)C[C@H]5[C@@H](O)[C@@H](O)CC[C@]5(C)[C@H]4CC[C@]23C)cc1 (stereo partly drawn) [Compound 51, (1R,3aR,5aR,6R,7S,9aR,9bR,11aR)-4-fluoro-1-[(2R)-6-hydroxy-6-(4-methoxyphenyl)hexan-2-yl]-9a,11a-dimethyl-2,3,3a,5,5a,6,7,8,9,9a,9b,10,11,11a-tetradecahydro-1H-cyclopenta[1,2-a]phenanthrene-6,7-diol] | 0.212 | –
COc1cc(Cl)ccc1[C@@H](O)CCC[C@@H](C)[C@H]1CC[C@H]2[C@H]3[C@H](CC[C@]12C)[C@@]1(C)CC[C@H](O)[C@H](O)[C@@H]1CC3(F)F [Compound 112, (1R,3aS,3bS,5aR,6R,7S,9aR,9bS,11aR)-1-[(2R,6S)-6-(4-chloro-2-methoxyphenyl)-6-hydroxyhexan-2-yl]-4,4-difluoro-9a,11a-dimethylhexadecahydro-1H-cyclopenta[1,2-a]phenanthrene-6,7-diol] | 0.318 | –
COc1cc(F)ccc1C(N)CCC[C@@H](C)[C@H]1CC[C@H]2[C@H]3[C@H](CC[C@]12C)[C@@]1(C)CC[C@H](O)[C@H](O)[C@@H]1CC3(F)F (stereo partly drawn) [Compound 156, (1R,3aS,3bS,5aR,6R,7S,9aR,9bS,11aR)-1-[(2R)-6-amino-6-(4-fluoro-2-methoxyphenyl)hexan-2-yl]-4,4-difluoro-9a,11a-dimethylhexadecahydro-1H-cyclopenta[1,2-a]phenanthrene-6,7-diol] | 1.32 | –
COc1nc(F)ccc1[C@H](O)CC[C@@H](C)[C@H]1CC[C@H]2C3=C(F)C[C@H]4[C@@H](O)[C@@H](O)CC[C@]4(C)[C@H]3CC[C@]12C [Compound 340, (1R,3aR,5aR,6R,7S,9aR,9bR,11aR)-4-fluoro-1-[(2R,5R)-5-(6-fluoro-2-methoxypyridin-3-yl)-5-hydroxypentan-2-yl]-9a,11a-dimethyl-2,3,3a,5,5a,6,7,8,9,9a,9b,10,11,11a-tetradecahydro-1H-cyclopenta[1,2-a]phenanthrene-6,7-diol] | 0.108 | –
COc1ccc(C(O)CCC[C@@H](C)[C@H]2CC[C@H]3[C@H]4[C@H](CC[C@]23C)[C@@]2(C)CC[C@H](O)[C@H](O)[C@@H]2CC4(F)F)c(OC)c1 (stereo partly drawn) [Compound 183, (1R,3aS,3bS,5aR,6R,7 S,9aR,9bS,11aR)-1-[(2R)-6-(2,4-Dimethoxyphenyl)-6-hydroxyhexan-2-yl]-4,4-difluoro-9a,11a-dimethylhexadecahydro-1H-cyclopenta[1,2-a]phenanthrene-6,7-diol] | 0.141 | –
COc1ncncc1C(O)CCC[C@@H](C)[C@H]1CC[C@H]2[C@H]3[C@H](CC[C@]12C)[C@@]1(C)CC[C@H](O)[C@H](O)[C@@H]1CC3(F)F (stereo partly drawn) [Compound 152, (1R,3aS,3bS,5aR,6R,7S,9aR,9bS,11aR)-4,4-difluoro-1-[(2R)-6-hydroxy-6-(4-methoxypyrimidin-5-yl)hexan-2-yl]-9a,11a-dimethylhexadecahydro-1H-cyclopenta[1,2-a]phenanthrene-6,7-diol] | 0.14 | –
C[C@H](CCCC(O)c1cccc(OC(F)(F)F)c1)[C@H]1CC[C@H]2C3=C(F)C[C@H]4[C@@H](O)[C@@H](O)CC[C@]4(C)[C@H]3CC[C@]12C (stereo partly drawn) [Compound 88, (1R,3aR,5aR,6R,7S,9aR,9bR,11aR)-4-fluoro-1-[(2R)-6-hydroxy-6-{3-[(trifluoromethyl)oxy]phenyl}hexan-2-yl]-9a,11a-dimethyl-2,3,3a,5,5a,6,7,8,9,9a,9b,10,11,11a-tetradecahydro-1H-cyclopenta[1,2-a]phenanthrene-6,7-diol] | 0.622 | –
COc1nccnc1[C@@H](O)CCC[C@@H](C)[C@H]1CC[C@H]2[C@H]3[C@H](CC[C@]12C)[C@@]1(C)CC[C@H](O)[C@H](O)[C@@H]1CC3(F)F [Compound 155, (1R,3aS,3bS,5aR,6R,7S,9aR,9bS,11aR)-4,4-difluoro-1-[(2R,6S)-6-hydroxy-6-(3-methoxypyrazin-2-yl)hexan-2-yl]-9a,11a-dimethylhexadecahydro-1H-cyclopenta[1,2-a]phenanthrene-6,7-diol] | 0.188 | –
COc1nccnc1[C@H](O)CCC[C@@H](C)[C@H]1CC[C@H]2[C@H]3[C@H](CC[C@]12C)[C@@]1(C)CC[C@H](O)[C@H](O)[C@@H]1CC3(F)F [Compound 154, (1R,3aS,3bS,5aR,6R,7S,9aR,9bS,11aR)-4,4-difluoro-1-[(2R,6R)-6-hydroxy-6-(3-methoxypyrazin-2-yl)hexan-2-yl]-9a,11a-dimethylhexadecahydro-1H-cyclopenta[1,2-a]phenanthrene-6,7-diol] | 0.242 | –
COc1ccc(F)c(C(O)CCC[C@@H](C)[C@H]2CC[C@H]3[C@H]4[C@H](CC[C@]23C)[C@@]2(C)CC[C@H](O)[C@H](O)[C@@H]2CC4(F)F)c1 (single isomer, unassigned) [Compound 167, (1R,3aS,3bS,5aR,6R,7S,9aR,9bS,11aR)-4,4-difluoro-1-[(2R,6R)-6-(2-fluoro-5-methoxyphenyl)-6-hydroxyhexan-2-yl]-9a,11a-dimethylhexadecahydro-1H-cyclopenta[1,2-a]phenanthrene-6,7-diol or (1R,3aS,3bS,5aR,5aR,6R,7S,9aR,9bS,11aR) -4,4-difluoro-1-[(2R,6S)-6-(2-fluoro-5-methoxyphenyl)-6-hydroxyhexan-2-yl]-9a,11a-dimethylhexadecahydro-1H-cyclopenta[1,2-a]phenanthrene-6,7-diol] | – | 0.88
COc1ccnc(C[C@@H](O)CCC[C@@H](C)[C@H]2CC[C@H]3[C@H]4[C@H](CC[C@]23C)[C@@]2(C)CC[C@H](O)[C@H](O)[C@@H]2CC4(F)F)c1 (stereo in doubt) [Compound 304, (1R,3aS,3bS,5aR,6R,7S,9aR,9bS,11aR)-4,4-difluoro-1-[(2R,6S)-6-hydroxy-7-(4-methoxypyridin-2-yl)heptan-2-yl]-9a,11a-dimethylhexadecahydro-1H-cyclopenta[1,2-a]phenanthrene-6,7-diol] | 0.243 | –
C[C@H](CCCC(O)c1nccs1)[C@H]1CC[C@H]2C3=C(F)C[C@H]4[C@@H](O)[C@@H](O)CC[C@]4(C)[C@H]3CC[C@]12C (stereo partly drawn) [Compound 90, (1R,3aR,5aR,6R,7S,9aR,9bR,11aR)-4-fluoro-1-[(2R)-6-hydroxy-6-(1,3-thiazol-2-yl)hexan-2-yl]-9a,11a-dimethyl-2,3,3a,5,5a,6,7,8,9,9a,9b,10,11,11a-tetradecahydro-1H-cyclopenta[1,2-a]phenanthrene-6,7-diol] | 0.379 | –
